We go through 11 compounds from US20260364184A1, “COMPOUND BASED ON OXOISOINDOLINYL-SUBSTITUTED TETRAHYDROPYRIMIDINE-DIONE AND USE THEREOF” (GLUETACS THERAPEUTICS (SHANGHAI) CO., LTD., priority 2023, published 2026).

For test [1], the system named is Human malignant melanoma cell line (A375). In words: Inhibition of A375 cell proliferation (CellTiter luminescent viability). The settings on record: A-375, Table III (II1), EZH2 inhibitor-based, 96 hours; for inhibition at 0.01 µM: A375, 10 nM, read-out: Inhibition Rate at 10 nM (%); for inhibition at 0.5 µM: A375, 500 nM, read-out: Inhibition Rate at 500 nM (%). The procedure: The tumor cells used herein were cultured in a cell culture medium listed in table 3 at 37 °C in an incubator with 5% CO2. Prior to experimentation, all cell lines used were correctly identified by STR profiling, and tested negative for mycoplasma contamination using a mycoplasma detection kit through routine screenings.
The IC50 values of the compounds of the present disclosure (including the compounds in Table 1, Table 2, and Examples 1-468) were determined using the CellTiter-Meiluncell Luminescent Cell Viability Assay Kit from Dalian Meilun Biotech Co., Ltd. The detailed procedure is as follows: Tumor cells were seeded in 96-well cell culture plates at the densities specified in Table 4. On the following day, the test compounds of the present disclosure were subjected to serial dilution. The dilution can be performed according to one of the following two methods: • (1) The first dilution method: The test compounds of the present disclosure (including the compounds in Table 1, Table 2, and Examples 1-468) were subjected to 5-fold serial dilutions starting from a highest concentration of 2000 μM, resulting in a total of 9 concentrations from high to low (2000, 400, 80, 16, 3.2, 0.64, 0.128, 0.0256, 0.00512 μM). Subsequently, 0.5 μL of the test compound dilution was transferred into the 96-well plate containing the cells, with each well containing 100 μL of cell culture medium. […] Into the 96-well plate, the diluted test compounds and corresponding detection reagents were added, resulting in final test compound concentrations of 500 nM and 10 nM, respectively. The experimental procedure is described below using the diluted 2 μM test compound as an example.
0.5 μL of the aforementioned diluted compound of the present disclosure (including the compounds in Table 1, Table 2, and Examples 1-468) was added to the seeded cells in 100 μL of medium, yielding a final test compound concentration of 10 nM. After the cells were treated with the compounds of the present disclosure for a specified period, the cell viability assay reagent was added to the culture medium according to the kit's instructions to determine cell viability. […] All controls were treated using the same procedure as the compounds of the present disclosure. The growth inhibition curves for the compounds of the present disclosure were plotted using Prism GraphPad software, and the IC50 values were calculated therefrom.

Test [2] relates to Human large cell immunoblastic lymphoma cell line SR. Briefly: Inhibition of SR cell proliferation (CellTiter luminescent viability). The class given is cell-based. The settings on record: Table IB1, ALK inhibitor-based, 96 hours, read-out: Inhibitory activity (IC50, nM) on tumor cell proliferation, SR. Put shortly: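 Cells are seeded in 96-well plates, cultured at 37 °C, 5% CO2, and treated next day with 5-fold serial compound dilutions (stock series from 2000 μM; 0.5 μL into 100 μL medium). Viability is read by CellTiter-Meiluncell luminescence after the set exposure, and IC50 is taken from growth-inhibition curves.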

The target of test [3] is T1, ALK (Homo sapiens, UniProt Q9UM73).
T1 construct: known EML4-ALK variant 3 fusion, ALK kinase part unmutated), Western blot
In words: Western blot degradation of ALK. The class given is cell-based. To be noted: H2228 Cell; 24 hours. The procedure:
Conventional Western blot assay was performed to evaluate the effects of the compounds of the present disclosure on the expression of target proteins in cells.
(1) Cell Seeding and Protein Harvesting: The selected cells were processed according to the cell seeding procedure and protein harvesting procedure in Table II-2.
(2) To the collected supernatant, 5×SDS sample loading buffer was added, followed by denaturation at 95 °C for 5 minutes. The denatured samples were then separated by SDS-PAGE electrophoresis on a polyacrylamide gel. Proteins were transferred to a nitrocellulose membrane (0.45 μm NC membrane), blocked with blocking buffer at room temperature for 1 hour, and subjected to antibody incubation and development procedures according to the antibody manufacturer's instructions (Cell Signaling Technology).
Half-Maximal Degradation Concentration value (the drug concentration required for degrading proteins by 50%, abbreviated as DC50) reads method: comparing the grayscale values of Western blot bands from drug-treated samples with those from blank DMSO-treated controls, and identifying the drug concentration range at which the grayscale value is half that of the DMSO-treated control bands.
DC50 values can be calculated using ImageJ software to measure grayscale values of Western blot bands from drug-treated samples. The concentration-response curve is fitted to estimate the drug concentration corresponding to half the grayscale value.
Target protein remaining (%) refers to the percentage of target protein remaining in cells after treatment with protein degrader compounds.
Calculation method for target protein remaining (%): Use ImageJ software to measure grayscale values of Western blot bands from drug (protein degrader)-treated samples. The grayscale value of drug-treated bands is divided by that of internal control protein bands, and the resulting quotient is normalized to obtain the relative percentage of remaining target protein after protein degrader treatment.
Target protein degradation rate (%)=1−target protein remaining (%).
In general terms: In western blotting, separated proteins are transferred to a membrane and probed.

T1 sequence (Q9UM73 19-1620): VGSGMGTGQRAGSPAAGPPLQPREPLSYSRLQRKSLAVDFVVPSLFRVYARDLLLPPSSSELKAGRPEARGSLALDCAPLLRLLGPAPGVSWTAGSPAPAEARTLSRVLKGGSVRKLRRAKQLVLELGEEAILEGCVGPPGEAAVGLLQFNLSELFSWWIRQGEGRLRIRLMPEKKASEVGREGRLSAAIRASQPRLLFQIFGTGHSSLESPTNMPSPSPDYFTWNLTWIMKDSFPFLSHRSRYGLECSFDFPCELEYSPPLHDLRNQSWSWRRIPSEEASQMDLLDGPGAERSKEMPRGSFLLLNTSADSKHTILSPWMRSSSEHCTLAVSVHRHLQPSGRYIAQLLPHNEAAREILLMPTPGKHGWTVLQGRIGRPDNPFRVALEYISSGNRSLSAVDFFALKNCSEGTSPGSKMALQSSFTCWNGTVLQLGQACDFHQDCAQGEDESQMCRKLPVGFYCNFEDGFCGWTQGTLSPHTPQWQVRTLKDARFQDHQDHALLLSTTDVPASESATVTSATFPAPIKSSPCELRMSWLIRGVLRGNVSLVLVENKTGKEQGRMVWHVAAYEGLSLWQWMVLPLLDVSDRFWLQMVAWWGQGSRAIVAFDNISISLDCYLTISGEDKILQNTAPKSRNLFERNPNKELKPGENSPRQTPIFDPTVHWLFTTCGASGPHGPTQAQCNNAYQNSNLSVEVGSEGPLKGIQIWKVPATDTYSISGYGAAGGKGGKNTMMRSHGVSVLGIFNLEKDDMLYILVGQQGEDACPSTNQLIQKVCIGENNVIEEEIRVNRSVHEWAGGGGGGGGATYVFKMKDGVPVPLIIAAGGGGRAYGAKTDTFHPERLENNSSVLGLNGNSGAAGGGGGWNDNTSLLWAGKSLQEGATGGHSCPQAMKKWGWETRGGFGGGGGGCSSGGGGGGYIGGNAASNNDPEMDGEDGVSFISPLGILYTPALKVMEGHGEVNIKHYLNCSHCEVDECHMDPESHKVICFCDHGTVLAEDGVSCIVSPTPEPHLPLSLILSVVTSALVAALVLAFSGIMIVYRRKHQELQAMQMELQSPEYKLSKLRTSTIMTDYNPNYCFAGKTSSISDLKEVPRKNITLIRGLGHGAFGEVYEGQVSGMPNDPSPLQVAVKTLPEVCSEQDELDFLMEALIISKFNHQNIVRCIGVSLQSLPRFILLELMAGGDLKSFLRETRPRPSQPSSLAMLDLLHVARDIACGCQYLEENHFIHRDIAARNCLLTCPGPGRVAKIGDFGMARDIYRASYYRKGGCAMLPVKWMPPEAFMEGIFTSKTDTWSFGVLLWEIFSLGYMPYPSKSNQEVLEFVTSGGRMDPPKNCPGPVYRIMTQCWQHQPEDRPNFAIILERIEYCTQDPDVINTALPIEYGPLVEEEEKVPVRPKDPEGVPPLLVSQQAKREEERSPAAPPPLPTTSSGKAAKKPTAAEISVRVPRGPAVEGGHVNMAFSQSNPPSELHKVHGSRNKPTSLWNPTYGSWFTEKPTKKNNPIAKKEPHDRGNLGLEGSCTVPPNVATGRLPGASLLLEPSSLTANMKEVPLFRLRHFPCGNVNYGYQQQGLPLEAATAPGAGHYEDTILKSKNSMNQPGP
T1 sequence (Q96SW2 whole entry partner, the tested form may be a part): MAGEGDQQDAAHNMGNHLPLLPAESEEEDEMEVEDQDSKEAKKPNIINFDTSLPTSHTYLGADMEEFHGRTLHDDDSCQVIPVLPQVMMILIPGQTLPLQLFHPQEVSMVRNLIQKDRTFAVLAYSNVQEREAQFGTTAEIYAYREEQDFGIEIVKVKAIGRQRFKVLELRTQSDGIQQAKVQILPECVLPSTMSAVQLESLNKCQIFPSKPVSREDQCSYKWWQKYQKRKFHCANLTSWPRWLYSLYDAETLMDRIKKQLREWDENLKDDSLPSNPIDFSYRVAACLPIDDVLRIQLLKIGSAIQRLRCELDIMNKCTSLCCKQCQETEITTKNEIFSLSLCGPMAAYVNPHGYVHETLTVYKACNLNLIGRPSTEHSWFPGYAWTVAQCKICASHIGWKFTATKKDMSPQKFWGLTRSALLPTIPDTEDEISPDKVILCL

The inhibition is how much of the control response was suppressed. Regarding `CCN(c1cc(-c2ccc(CN3CCN(CC4CCN(c5ccc6c(c5)C(=O)N(N5CCC(=O)NC5=O)C6=O)CC4)CC3)cc2)cc(C(=O)NCc2c(C)cc(C)[nH]c2=O)c1C)C1CCOCC1` [GT-08518, N-((4,6-dimethyl-2-oxo-1,2-dihydropyridin-3-yl)methyl)-4′-((4-((1-(2-(2,4-dioxotetrahydropyrimidin-1(2H)-yl)-1,3-dioxoisoindolin-5-yl)piperidin-4-yl)methyl)piperazin-1-yl)methyl)-5-(ethyl(tetrahydro-2H-pyran-4-yl)amino)-4-methyl-[1,1′-biphenyl]-3-carboxamide], in test [1], the inhibition at 0.01 µM fell in the range of 20 to 30% and the inhibition at 0.5 µM lay in the range of 20 to 30%.
With `CCCc1cc(C)[nH]c(=O)c1CNC(=O)c1cc(-c2ccc(N3CCN(CC4CCN(c5ccc6c(c5)C(=O)N(N5CCC(=O)NC5=O)C6=O)CC4)CC3)nc2)cc2c1cnn2C(C)C` [GT-08516, 6-(6-(4-((1-(2-(2,4-dioxotetrahydropyrimidin-1(2H)-yl)-1,3-dioxoisoindolin-5-yl)piperidin-4-yl)methyl)piperazin-1-yl)pyridin-3-yl)-1-isopropyl-N-((6-methyl-2-oxo-4-propyl-1,2-dihydropyridin-3-yl)methyl)-1H-indazole-4-carboxamide], in test [1], the inhibition at 0.01 µM fell in the range of 20 to 30% and the inhibition at 0.5 µM is 20 to 30%.
With `COc1cc(N2CCN(Cc3ccc4c(c3)C(=O)N(N3CCC(=O)NC3=O)C4=O)CC2)ccc1Nc1ncc(Cl)c(Nc2ccccc2P(C)(C)=O)n1` [GT-07342, 5-((4-(4-((5-chloro-4-((2-(dimethylphosphoryl)phenyl)amino)pyrimidin-2-yl)amino)-3-methoxyphenyl)piperazin-1-yl)methyl)-2-(2,4-dioxotetrahydropyrimidin-1(2H)-yl)isoindoline-1,3-dione], the IC50 in test [2] is 100 to 300 nM. Moreover, in test [3], the “Degradation of substrate protein ALK (substrate protein remaining %)” value (“Degradation … (substrate protein remaining %)” for short) is “A (0%≤substrate protein remaining %≤80%)”.
For the compound `COc1cc(N2CCN(Cc3ccc4c(c3)CN(N3CCC(=O)NC3=O)C4=O)CC2)ccc1Nc1ncc(Cl)c(Nc2ccccc2P(C)(C)=O)n1` [GT-07341, 1-(5-((4-(4-((5-chloro-4-((2-(dimethylphosphoryl)phenyl)amino)pyrimidin-2-yl)amino)-3-methoxyphenyl)piperazin-1-yl)methyl)-1-oxoisoindolin-2-yl)dihydropyrimidine-2,4 (1H,3H)-dione], the IC50 in test [2] was 10 to 50 nM. The “Degradation … (substrate protein remaining %)” value in test [3] is reported as “A (0%≤substrate protein remaining %≤80%)”.
On to `CCc1cc2c(cc1N1CCN(CC3CCN(c4ccc5c(c4)C(=O)N(N4CCC(=O)NC4=O)C5=O)CC3)CC1)C(C)(C)c1[nH]c3cc(C#N)ccc3c1C2=O` [GT-07321, 8-(4-((1-(2-(2,4-dioxotetrahydropyrimidin-1(2H)-yl)-1,3-dioxoisoindolin-5-yl)piperidin-4-yl)methyl)piperazin-1-yl)-9-ethyl-6,6-dimethyl-11-oxo-6,11-dihydro-5H-benzo[b]carbazole-3-carbonitrile], for which the IC50 in test [2] lay in the range of 50 to 100 nM. For the same compound, the “Degradation … (substrate protein remaining %)” value in test [3] is “A (0%≤substrate protein remaining %≤80%)”.
On to `CCc1cc2c(cc1N1CCN(Cc3ccc4c(c3)CN(N3CCC(=O)NC3=O)C4=O)CC1)C(C)(C)c1[nH]c3cc(C#N)ccc3c1C2=O` [GT-07340, 8-(4-((2-(2,4-dioxotetrahydropyrimidin-1(2H)-yl)-1-oxoisoindolin-5-yl)methyl)piperazin-1-yl)-9-ethyl-6,6-dimethyl-11-oxo-6,11-dihydro-5H-benzo[b]carbazole-3-carbonitrile], for which, in test [2], the IC50 is 10 to 50 nM. The “Degradation … (substrate protein remaining %)” value in test [3] is “A (0%≤substrate protein remaining %≤80%)”.
On to `CCc1cc2c(cc1N1CCC(N3CCN(CC4CCN(c5cccc6c5C(=O)N(N5CCC(=O)NC5=O)C6=O)CC4)CC3)CC1)C(C)(C)c1[nH]c3cc(C#N)ccc3c1C2=O` [GT-07298, 8-(4-(4-((1-(2-(2,4-dioxotetrahydropyrimidin-1(2H)-yl)-1,3-dioxoisoindolin-4-yl)piperidin-4-yl)methyl)piperazin-1-yl)piperidin-1-yl)-9-ethyl-6,6-dimethyl-11-oxo-6,11-dihydro-5H-benzo[b]carbazole-3-carbonitrile], for which the IC50 in test [2] was 10 to 50 nM. Also, the “Degradation … (substrate protein remaining %)” value in test [3] is recorded as “A (0%≤substrate protein remaining %≤80%)”.
With `Cc1cc(Nc2ncc(Cl)c(Nc3ccccc3S(=O)(=O)C(C)C)n2)c(OC(C)C)cc1C1CCN(Cc2ccc3c(c2)C(=O)N(N2CCC(=O)NC2=O)C3=O)CC1` [GT-07363, 5-((4-(4-((5-chloro-4-((2-(isopropylsulfonyl)phenyl)amino)pyrimidin-2-yl)amino)-5-isopropoxy-2-methylphenyl)piperidin-1-yl)methyl)-2-(2,4-dioxotetrahydropyrimidin-1(2H)-yl)isoindoline-1,3-dione], the IC50 in test [2] lay in the range of 100 to 300 nM. In test [3], the “Degradation … (substrate protein remaining %)” value is recorded as “A (0%≤substrate protein remaining %≤80%)”.
On the same counts, the results for `CCc1cc2c(cc1N1CCN(Cc3ccc4c(c3)C(=O)N(N3CCC(=O)NC3=O)C4=O)CC1)C(C)(C)c1[nH]c3cc(C#N)ccc3c1C2=O` [GT-07320, 8-(4-((2-(2,4-dioxotetrahydropyrimidin-1(2H)-yl)-1,3-dioxoisoindolin-5-yl)methyl)piperazin-1-yl)-9-ethyl-6,6-dimethyl-11-oxo-6,11-dihydro-5H-benzo[b]carbazole-3-carbonitrile] are 100 to 300 nM and “A (0%≤substrate protein remaining %≤80%)”.
Regarding `Cc1cc(Nc2ncc(Cl)c(Nc3ccccc3S(=O)(=O)C(C)C)n2)c(OC(C)C)cc1C1CCN(Cc2ccc3c(c2)CN(N2CCC(=O)NC2=O)C3=O)CC1` [GT-07362, 1-(5-((4-(4-((5-chloro-4-((2-(isopropylsulfonyl)phenyl)amino)pyrimidin-2-yl)amino)-5-isopropoxy-2-methylphenyl)piperidin-1-yl)methyl)-1-oxoisoindolin-2-yl)dihydropyrimidine-2,4 (1H,3H)-dione], the IC50 in test [2] is 10 to 50 nM. For the same compound, in test [3], the “Degradation … (substrate protein remaining %)” value is “A (0%≤substrate protein remaining %≤80%)”.
Regarding `CCc1cc2c(cc1N1CCN(CC3CCN(c4cccc5c4C(=O)N(N4CCC(=O)NC4=O)C5=O)CC3)CC1)C(C)(C)c1[nH]c3cc(C#N)ccc3c1C2=O` [GT-07322, 8-(4-((1-(2-(2,4-dioxotetrahydropyrimidin-1(2H)-yl)-1,3-dioxoisoindolin-4-yl)piperidin-4-yl)methyl)piperazin-1-yl)-9-ethyl-6,6-dimethyl-11-oxo-6,11-dihydro-5H-benzo[b]carbazole-3-carbonitrile], the IC50 in test [2] fell in the range of 10 to 50 nM. In test [3], the “Degradation … (substrate protein remaining %)” value is listed as “A (0%≤substrate protein remaining %≤80%)”.
